The test system of this assay is mongolian gerbils. The assay is described as follows: gerbil social interaction model (social stress assay). It counts as in vivo. To be noted: one hour after administration. How it is done:
Paroxetine hydrochloride hemihydrate (0.03 mg/kg p.o of the paroxetine measured as the free base), 4-(S)-(4-Acetyl-piperazin-1-yl)-2-(R)-(4-fluoro-2-methyl-phenyl)-piperidine-1-carboxylic acid [1-(R)-(3,5-bis-trifluoromethyl-phenyl)-ethyl]-methylamide methansulphonate (hereinafter compound A) (0.03 mg/kg i.p of the compound A measured as the free base) and a combination of paroxetine (0.03 mg/kg p.o. of the paroxetine measured as the free base) and compound A (0.03 mg/kg i.p. of the compound A measured as the free base) were administered independently in mongolian gerbils to assess the effect on time spent in active social interactions.
The results obtained one hour after administration, expressed as a percentage variation of the time spent in active social interactions by each animal in respect to the value obtained by treatment of control animals, are summarised in table 1.

Where a name gives a salt, the structure may show the parent alone.

For `Fc1ccc([C@@H]2CCNC[C@H]2COc2ccc3c(c2)OCO3)cc1` [Paroxetine hydrochloride hemihydrate, (−)trans-4-(4′-fluorophenyl)3-(3′-4′-methylenedioxyphenoxymethyl) piperidine], the “% variation of the time spent in active social interactions in respect to control animals” value (0.03 mg/kg p.o. (measured as the free base)) is given as −2.4%.

On to `CC(=O)N1CCN([C@H]2CCN(C(=O)N(C)[C@H](C)c3cc(C(F)(F)F)cc(C(F)(F)F)c3)[C@@H](c3ccc(F)cc3C)C2)CC1.CS(=O)(=O)O` [Compound A, 4-(S)-(4-Acetyl-piperazin-1-yl)-2-(R)-(4-fluoro-2-methyl-phenyl)-piperidine-1-carboxylic acid [1-(R)-(3,5-bis-trifluoromethyl-phenyl)-ethyl]-methylamide methansulphonate], for which the “% variation of the time spent in active social interactions in respect to control animals” value (0.03 mg/kg i.p. (measured as the free base)) is listed as 20.7%.

These data come from patent publication US20060217395A1, “Combinations of paroxetine and 4- (s) - (4-acetyl-piperazin-1-yl) -2- (r)- (4-fluoro-2-methyl- phenyl -piperidine-1-carboxylic acid [1- (r) (3,5-bis-trifluoromethyl-phenyl) -ethyl] methylamide for treatment of depression and / or anxiety” (GLAXO GROUP LIMITED, priority 2003, published 2006).
